Laboratory results: ChEMBL document CHEMBL5728238, “Inhibiting agents for Bruton's tyrosine kinase” (2021)

Target: Tyrosine-protein kinase BTK (Homo sapiens, UniProt Q06187)
Test: In Vitro Kinase Assay: The purpose of the BTK in vitro assay is to determine compound potency against BTK through the measurement of IC50. Compound inhibition is measured after monitoring the amount of phosphorylation of a fluorescein-labeled polyGAT peptide (Invitrogen PV3611) in the presence of active BTK enzyme (Upstate 14-552), ATP, and inhibitor. The BTK kinase reaction was done in a black 96 well plate (costar 3694). For a typical assay, a […] aliquot of a ATP/peptide master mix (final concentration; […], polyGAT 100 nM) in kinase buffer (10 mM Tris-HCl pH 7.5, 10 mM MgCl2, 200 μM Na3PO4, 5 mM DTT, 0.01% Triton X-100, and 0.2 mg/ml casein) is added to each well. Next, […] of a 4-fold, 40× compound titration in 100% DMSO solvent is added, followed by adding 15 μL of BTK enzyme mix in 1× kinase buffer (with a final concentration of 0.25 nM). The assay is incubated for 30 minutes before being stopped with 28 μL of a 50 mM EDTA solution. Aliquots (5 μL) of the kinase reaction are transferred to a low volume white 384 well plate (Corning 3674), and 5 μL of a 2× detection buffer (Invitrogen PV3574, with 4 nM Tb-PY20 antibody, Invitrogen PV3552) is added. The plate is covered and incubated for 45 minutes at room temperature. Time resolved fluorescence (TRF) on Molecular Devices M5 (332 nm excitation; 488 nm emission; 518 nm fluorescein emission) is measured. […]

Chain of Tyrosine-protein kinase BTK (Q06187 whole entry): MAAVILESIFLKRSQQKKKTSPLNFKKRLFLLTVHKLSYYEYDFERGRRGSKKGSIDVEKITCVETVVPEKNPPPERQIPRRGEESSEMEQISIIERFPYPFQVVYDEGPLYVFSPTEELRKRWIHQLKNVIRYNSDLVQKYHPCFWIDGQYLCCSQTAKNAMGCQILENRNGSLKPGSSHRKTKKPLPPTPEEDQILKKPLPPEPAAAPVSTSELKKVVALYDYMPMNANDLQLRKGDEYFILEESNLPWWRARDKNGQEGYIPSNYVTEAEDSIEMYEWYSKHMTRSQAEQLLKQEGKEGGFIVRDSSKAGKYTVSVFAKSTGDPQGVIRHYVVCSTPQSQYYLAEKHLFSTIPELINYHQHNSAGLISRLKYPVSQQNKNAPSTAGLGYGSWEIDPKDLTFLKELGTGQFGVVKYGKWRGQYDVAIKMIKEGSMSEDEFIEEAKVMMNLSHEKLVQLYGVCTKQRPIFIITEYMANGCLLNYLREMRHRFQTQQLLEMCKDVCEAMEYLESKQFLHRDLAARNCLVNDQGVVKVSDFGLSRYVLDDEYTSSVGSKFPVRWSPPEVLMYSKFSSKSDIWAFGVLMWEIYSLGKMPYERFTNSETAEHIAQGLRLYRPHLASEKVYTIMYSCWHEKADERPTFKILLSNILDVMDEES

| Structure (SMILES) | IC50 [nM] |
| --- | --- |
| Cc1cc(-c2ncnc(Nc3cnn(C)c3)n2)ccc1CNC(=O)c1cc(C(C)(C)C)on1 | < 1 |
| Cc1cc(-c2ncnc(Nc3cnn(C)c3)n2)ccc1CNC(=O)c1noc(C2[C@@H](C)[C@H]2C)n1 (some centres not stated) | < 1 |
